Test [1] concerns MC3T3-E1 cells. Briefly: Cell proliferation assay (cell counting). Type of test: cell-based, mouse. Conditions: Bay 11-7082 1, 10, or 50 nM, 3 days; Fig. 7B. The procedure: To examine progression of cell proliferation, MC3T3-E1 cells (1×10^5/ml medium per well) were cultured using a 24-well plate in a-MEM supplemented with 10% FBS and 1% P/S at 37°C in a water-saturated atmosphere containing 5% CO2 and 95% air. The cells were cultured for 1, 2, 3, 4, or 5 days in the presence of a vehicle (1% ethanol as final concentration) or DHMBA (10 mM). In another experiment, to evaluate the effects of increased concentrations of DHMBA on MC3T3-E1 cells, the cells (1×10^5/ml per well) were cultured using a 24-well plate in DMEM (containing 10% FBS and 1% P/S). The cells were cultured for 3 days in the presence of either a reagent vehicle (1% ethanol as final concentration) or DHMBA (0.1, 1, 10, 100, or 1000 mM).
To evaluate the effects of DHMBA on cell death of osteoblasts MC3T3-E1, the cells (1×10^5/ml medium per well in a 24-well plate) were cultured in a-MEM containing 10% FBS and 1% P/S. After culturing for 3 days until reaching subconfluence, either a reagent vehicle (1% ethanol as final concentration) or DHMBA (0.1, 1, 10, 100, or 1000 mM) was added, and the cells were further cultured for 48 hours. After culture, to count the number of cells attached to each well, a […] containing 0.05% trypsin and EDTA (0.1 ml per well) was added, and then the culture plates were incubated at 37°C for 2 minutes. Subsequently, a-MEM (0.9 ml) containing 10% FBS and 1% P/S was added, and the cells were detached and mixed by pipetting. The cell suspension (0.1 ml) was mixed with 0.1 ml of 0.5% trypan blue staining solution. By this staining, […]. Viable cells were counted under a microscope (Olympus MTV-3) using a hemocytometer (Sigma-Aldrich, St. Louis, MO) and a cell counter (H-102P, Line Seiki Co., Ltd., Tokyo, Japan), and the average of two counts was calculated. Cell numbers were expressed as the number per well.

Test [2] deals with MC3T3-E1 cells. Briefly: Effects of conditioned medium of LPS-stimulated RAW264.7 cells on MC3T3-E1 cells. Type of test: cell-based, mouse. The note with it: Bay 11-7082 1 or 10 nM, conditioned medium 0.5 ml per well. The procedure: A conditioned medium was obtained by culturing RAW264.7 cells.
RAW264.7 cells (1×10^5 cells/ml per well in a 24-well plate) were cultured for 3 days after reaching subconfluence in DMEM containing 10% FBS and 1% P/S in the presence or absence of LPS (concentration in the medium: 100 ng/ml). After the cells were cultured, the medium (conditioned medium) was collected.
To evaluate the effects of the conditioned medium on proliferation of MC3T3-E1 cells, MC3T3-E1 cells were cultured for 3 days in a-MEM containing 10% FBS and 1% P/S. The cells were then cultured for 3 days using either the conditioned medium (1 ml, control) cultured without LPS or the conditioned medium (0.25 or 0.50 ml per well, adjusted to 1 ml with normal medium) cultured with LPS in the presence or absence of DHMBA (1 or 10 mM).
Further, to examine the effects on cell death of MC3T3-E1 cells, the cells (1×10^5 cells/ml per well) were cultured for 3 days in a-MEM containing 10% FBS and 1% P/S. After reaching subconfluence, the medium was replaced. The cells were then further cultured for 48 hours in either the normal medium, the conditioned medium (1 ml) cultured without LPS, or the conditioned medium (0.25 or 0.50 ml per well, adjusted to 1 ml with normal medium) with either a reagent vehicle (1% ethanol as final concentration) or DHMBA (1 or 10 mM). After culture, the cells were detached from each culture well, and cell numbers were counted in the same manner as described above.
Further, the effects of Bay 11-7082, which is an NF-kB signaling inhibitor, on proliferation or cell death of MC3T3-E1 cells were investigated. First, to examine the effects of Bay 11-7082 on proliferation of MC3T3-E1 cells, the cells (1×10^5 cells/1 ml per well in a 24-well plate) were cultured for 3 days until reaching subconfluence in the presence of 10% FBS, 1% P/S, and either a reagent vehicle (1% ethanol as final concentration) or Bay 11-7082 (1, 10, 50, 100, or 1000 nM). Next, MC3T3-E1 cells were cultured for 3 days in the presence of the conditioned medium (0.5 ml per well, adjusted to a total of 1 ml with normal medium) with or without Bay 11-7082 (1 or 10 nM) in the presence or absence of DHMBA (10 mM).
In another experiment, to evaluate the effects of Bay 11-7082 on cell death of MC3T3-E1, the cells (1×10^5 cells/1 ml per well in a 24-well plate) were cultured in a-MEM containing 10% FBS and 1% P/S. After culturing for 3 days until reaching subconfluence, the medium was replaced with a-MEM (1 ml) containing either the normal medium or the conditioned medium prepared by adding the normal medium to 0.5 ml per well of the conditioned medium, adjusted to a total volume of 1 ml. The cells were then further cultured for 48 hours in the presence of Bay 11-7082 (1 or 10 nM), or Bay 11-7082 (10 nM) in combination with DHMBA (10 mM). After culture, the cells were detached from each culture well, and cell numbers were counted as described above.

In the case of `Cc1ccc(S(=O)(=O)/C=C/C#N)cc1` [Bay 11-7082, reference compound], the “number of MC3T3-E1 cells” value in the test on MC3T3-E1 cells [1] is on record as “did not cause a significant reduction”. The “effects of the conditioned medium on enhancement of cell death of MC3T3-E1 cells” value with MC3T3-E1 cells [2] (48 hours, Fig. 7D) is “suppressed”. In addition, in the test with MC3T3-E1 cells [2] (3 days, Fig. 7C), the “effects of the conditioned medium on inhibition of proliferation of MC3T3-E1 cells” value was “suppressed”.

The values above are taken from patent EP4778516A1, “CALCIFICATION ENHANCER FOR OSTEOBLAST MC3T3-E1 CELL” (Watanabe Oyster Laboratory Co., Ltd., priority 2023, dated 2025).
